# In US11975005B2, “Treatment of respiratory diseases” (TIANLI BIOTECH PTY LTD, priority 2015, dated 2024):
# Legend:
# CK1ε = CK1ε (Homo sapiens, UniProt P49674); test: CK1ε inhibition (IC50); assay type: biochemical
# RSV = test: 5 day model of RSV infection, treatments from day 1; assay type: in vivo, mice; settings: administered from day 1
# ALK5 = target: T1, ALK5 (Homo sapiens, UniProt P36897); test: ALK5 inhibition (IC50); assay type: biochemical
# T1 sequence (P36897 34-503): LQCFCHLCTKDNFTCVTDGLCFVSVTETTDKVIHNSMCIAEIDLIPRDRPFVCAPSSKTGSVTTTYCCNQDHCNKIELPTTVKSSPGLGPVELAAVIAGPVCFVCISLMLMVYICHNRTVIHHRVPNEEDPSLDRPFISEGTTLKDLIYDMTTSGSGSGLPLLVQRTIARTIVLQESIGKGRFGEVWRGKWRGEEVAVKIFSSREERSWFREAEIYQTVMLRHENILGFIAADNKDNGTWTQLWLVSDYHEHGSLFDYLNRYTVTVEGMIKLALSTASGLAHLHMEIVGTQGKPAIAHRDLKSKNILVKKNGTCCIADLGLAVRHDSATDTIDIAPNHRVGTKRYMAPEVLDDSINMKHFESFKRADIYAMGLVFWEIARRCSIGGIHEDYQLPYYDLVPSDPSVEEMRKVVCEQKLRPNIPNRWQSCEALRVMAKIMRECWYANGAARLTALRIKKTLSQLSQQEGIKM
# human lung fibroblasts = test: bFGF/TGFβ proliferation of human lung fibroblasts (viable cell number); assay type: cell-based; settings: 48 h
# Description: Experiments described in the current Example and Example 14 involved culture of human parenchymal fibroblasts, measurement of their proliferation and gene expression response, the methods for which are detailed in Schuliga et al 2009 (Am J Respir Cell Mol Biol. 2009; 41(6):731-41). Interaction between TGFβ and bFGF in human lung fibroblasts. […] An interaction previously characterized in airway smooth muscle cultures is that TGFβ reduces the proliferative effects of bFGF. A similar finding is observed in human lung fibroblasts, whereby TGFβ reduces the bFGF mitogenic effects.
# [1] = system: glucocorticoid response element (GRE) activity; test: GRE activity / GRE reporter in BEAS-2B cells; assay type: cell-based, human; settings: BEAS-2B cells; RV16 0.1 or 1.0 MOI; SB431542 1 μM
# Experimental: Data are presented as the means and SEM of 3 independent experiments. *P<0.05, cf corresponding Dex 30 nM response.
# (§1) The methods used in Examples 1 to 5 (and 10, 19, 20) are similar to those reported in Salem et al 2012 (Br J Pharmacol. 166:2036-2048) and again in Keenan et al 2014 (Respiratory Research, e15:55) in which methods for cell culture, GRE assays and gene expression measurements are fully described. Additional methods for growth of respiratory syncytial virus (RSV) and rhinovirus (RV) are described in Collins et al 2007 (Respir Physiol Neurobiol. 2007 Jun. 15; 156(3):345-52.) and by Xatzipsalti and papdopoulos, 2007 (Contrib Microbiol. 2007; 14:33-41).
# [2] = system: GRE-dependent gene expression; test: Glucocorticoid-induced gene expression in BEAS-2B cells; assay type: cell-based, human
# Description: as §1
# Data are presented as the means and SEM of 4 independent experiments. *P<0.05, cf corresponding Dex 30 nM response. […] Thus, TNFα contribution to glucocorticoid resistance, may be independent of TGFβ. The resistance is exemplified by the epithelial sodium channel alpha subunit SCNN1a which assembles into a Na channel that is thought to contribute to water reabsorption from the airspaces that are flooded during acute lung injury.
# TGFβ suppression ranged in magnitude amongst the genes selected for analysis. […] TGFβ and Dex synergise in increasing the expression of PAI-1 (FIG. 24B).
# [3] = human lung fibroblasts, PF4800567 1.0 μM
# [4] = FIG. 6A, BEAS-2B, SB431542 1 μM, PF670462 10 μM
# Sequence of CK1ε (P49674 whole entry): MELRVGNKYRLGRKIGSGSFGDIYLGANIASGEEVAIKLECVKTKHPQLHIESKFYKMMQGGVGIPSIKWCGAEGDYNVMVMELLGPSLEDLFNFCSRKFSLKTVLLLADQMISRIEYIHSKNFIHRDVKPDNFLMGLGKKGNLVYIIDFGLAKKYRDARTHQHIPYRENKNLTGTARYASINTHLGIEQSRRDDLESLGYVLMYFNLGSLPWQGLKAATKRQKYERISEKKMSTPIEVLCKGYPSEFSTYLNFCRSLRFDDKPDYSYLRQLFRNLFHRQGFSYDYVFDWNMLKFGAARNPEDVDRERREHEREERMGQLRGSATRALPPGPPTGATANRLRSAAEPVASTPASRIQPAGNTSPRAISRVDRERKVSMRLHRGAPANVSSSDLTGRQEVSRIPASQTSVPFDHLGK
Compound,IC50 (CK1ε) [µM],accumulation of inflammatory cells in the BAL fluid (RSV),IC50 (ALK5) [µM],bFGF induced mitogenesis (human lung fibroblasts; [3]),bFGF induced mitogenesis in the presence of TGFβ (human lung fibroblasts; [3]),impairment of Dexamethasone 30 nM GRE responses by Rhinovirus (RV16) infection [1],"effect of TGFβ on bFGF mitogenesis (human lung fibroblasts; human lung fibroblasts from donors without IPF, viable cell number)","suppression of Dex (30 nM) gene expression response (SCNN1a) induced by IL-13/IL-4 ([2]; BEAS-2B cells, IL-13/IL-4 at 10 ng/ml, PF670462 1 or 10 μM, SB431542 1 μM)","impairment of Dexamethasone 30 nM GILZ gene expression responses by RV16 infection ([2]; BEAS-2B cells, RV16 1.0 MOI, pretreatment)","suppression of Dex (30 nM) gene expression response (SCNN1a) induced by the combination TNFα, IL-13 and IL-4 ([2]; BEAS-2B cells, each at 0.1 ng/ml, PF670462 1 or 10 μM, SB431542 1 μM)","TGFβ suppression of glucocorticoid-induced CDKN1C (p57kip2) expression ([2]; BEAS-2B, Dex 100 nM, PF670462 1-10 μM)","levels of GILZ in RV infected cells [2, 4]","levels of GILZ in uninfected cells [2, 4]","RV infection-induced decrease of Dex-induced GILZ expression ([2]; FIG. 6B, BEAS-2B, SB431542 3 μM, PF670462 3 μM)"
O=C(NC1CCOCC1)c1ccc(-c2cc(-c3c[nH]nc3-c3ccccn3)ccn2)cc1 [GW788388],18.6,no activity,–,–,–,–,–,–,–,–,–,–,–,–
Nc1ncnc2c1c(COc1cccc(Cl)c1)nn2C1CCOCC1 [PF4800567],0.011,–,4.13,reduced,remained suppressed,–,–,–,–,–,–,–,–,–
NC(=O)c1ccc(-c2nc(-c3ccc4c(c3)OCO4)c(-c3ccccn3)[nH]2)cc1 [SB431542],–,–,–,–,–,prevented,able to block,some impact,greatly diminished,no detectable effect,completely blocked,increased,but not in uninfected cells,prevented
